The values below come from publication PMC3361971 (Journal of Natural Products, 2012).

Series [1] concerns Vero cells (kidney fibroblast). The experiment in a line: Cytotoxicity to Vero cells. Format: cell-based.
Series [2] has as its system lettuce (Lactuca sativa cv. L., Iceberg). The experiment in a line: Phytotoxicity assay, lettuce. Particulars: 1 mg/mL; visual ranking on scale of 0 to 5; in the presence of light.
The subject of series [3] is bentgrass (Agrostis stolonifera). The experiment in a line: Phytotoxicity assay, bentgrass. Particulars: 1 mg/mL; visual ranking on scale of 0 to 5; in the presence of light.
The subject of series [4] is Staphylococcus aureus ATCC 29213. The experiment in a line: Antimicrobial assay, methicillin-sensitive Staph. aureus. Format: cell-based. The following applies: ATCC29213.
Series [5] relates to methicillin-resistant Staphylococcus aureus ATCC 33591 (MRSA). The experiment in a line: Antimicrobial assay, methicillin-resistant Staph. aureus. The format is cell-based. The following applies: ATCC33591|MRSA.
The subject of series [6] is Leishmania donovani promastigotes. The experiment in a line: Antileishmanial assay. Format: cell-based. The following applies: read-out: Antileishmanial activity IC90.
The test system of series [7] is Plasmodium falciparum D6 (chloroquine sensitive) strain. The experiment in a line: Antiplasmodial assay, chloroquine-sensitive. The format is cell-based. The following applies: selectivity index = IC50 for cytotoxicity (Vero)/IC50 for antiplasmodial activity.
Series [8] deals with Plasmodium falciparum W2 (chloroquine resistant) strain. The experiment in a line: Antiplasmodial assay, chloroquine-resistant. Format: cell-based. The following applies: selectivity index = IC50 for cytotoxicity (Vero)/IC50 for antiplasmodial activity.

Converted amounts (≈) assume the structure as drawn. Some results are limits rather than exact numbers.

For the compound “13-(R)-hydroxy-N-(O-methyl)septoriamycin A [Compound 4]”, in series [1], the “Cytotoxicity to Vero cells IC50” value is listed as “no antimicrobial, antifungal, antiprotozoal, phytotoxic, or cytotoxic activity”.

As to `COc1c(C[C@@H](C)O)c2c3c(C[C@@H](C)O)c(OC)c(=O)c4c(O)cc5c(c6c(cc(O)c(c1=O)c62)OCO5)c43` [Compound 5, (+)-cercosporin], the “Phytotoxic activity ranking, lettuce” value in series [2] was determined as 3. The “Phytotoxic activity ranking, bentgrass” value in series [3] was 2. In addition, the minimal inhibitory concentration (MIC) in series [4] amounted to 2.5 ng/mL (≈ 4.68 nM); in series [5], 5 ng/mL (≈ 9.35 nM).

Regarding `COc1c(C[C@@H](C)OC(C)=O)c2c3c(C[C@@H](C)O)c(OC)c(=O)c4c(O)cc5c(c6c(cc(O)c(c1=O)c62)OCO5)c43` [Compound 6, (+)-14-O-acetylcercosporin], in series [2], the “Phytotoxic activity ranking, lettuce” value is given as 2. The “Phytotoxic activity ranking, bentgrass” value in series [3] stood at 4. Further, the IC90 in series [6] worked out at 8.5 µM.

As for `COc1c(C[C@@H](C)OC(C)=O)c2c3c(C[C@@H](C)OC(C)=O)c(OC)c(=O)c4c(O)cc5c(c6c(cc(O)c(c1=O)c62)OCO5)c43` [Compound 7, (+)-di-O-acetylcercosporin], in series [2], the “Phytotoxic activity ranking, lettuce” value is 3. In series [3], the “Phytotoxic activity ranking, bentgrass” value is given as 4.

As for `CC[C@@H](C)[C@H]1O[C@@H](c2c(OC)c(-c3ccccc3)c[n+]([O-])c2OC)[C@H](C)C[C@@H]1C` [Compound 10c], in series [7], the “Chloroquine-sensitive (D6)-clone S.I.” value was more than 1.1. The “Chloroquine-resistant (W2)-clone S. I.” value in series [8] is more than 1.2.
